What was measured:
[1] = system: western corn root worm larvae; assay: Glass bead Y-tube choice test, corn volatiles versus CO2 (Example 19); set-up: species or system Diabrotica virgifera virgifera LeConte; details: in vivo
Method: Bioassay Procedure. All bioassays were choice tests conducted using a vertical glass “Y” tube apparatus filled with 3-mm glass beads (Bernklau and Bjostad 1998) (FIG. 62). Volatile compounds were prepared in 35-ml polyethylene syringes (cat no. 106-0490, Sherwood Medical, St. Louis, Mo.) and a syringe pump (Sage Model 355, Fisher Scientific, Pittsburgh, Pa.) was used to provide, slow (1 ml per min) consistent delivery of the compounds into each choice arm of the bioassay apparatus. Twenty newly-hatched larvae (less than 12-hours-old) were used for each bioassay. Non-diapausing larvae were used for all experiments unless otherwise indicated below. For each choice test a minimum of 10 replicates were conducted.
Corn Headspace Versus CO2. Using the glass bead bioassay (Bernklau and Bjostad 1998) the headspace over germinating corn seeds was tested in a choice test against a series of CO2 concentrations to determine if corn volatiles (including CO2) were more attractive to the larvae than CO2 alone. A 35-ml syringe was filled with the headspace over 3-day-old germinating corn seedlings by means of a 25-cm length of slender Teflon tubing inserted into a hole drilled into the cover of the tub containing the corn seedlings.
Three different concentrations of CO2 were tested on the control side of the choice test. In the 1 st test, we used ambient room air on the control side, which contains a lower concentration of CO2 than the corn headspace (approximately 1.0 mmol/mol). In the 2nd test, we used GC-MS-SIM to match the CO2 concentration in the syringe on the control side to be equal to that measured in the syringe containing corn headspace. In the 3rd test, the syringe on the control side of the choice test contained a CO2 concentration twice that measured in the corn headspace. To prepare each of these control concentrations, a 2nd 35-ml polyethylene syringe was partially filled (approximately 5 ml) from a tank containing pure (100%) CO2 using a glass syringe. Headspace from a plastic tub containing only moist germination paper was drawn into the syringe to fill it, mixing the air and CO2 thoroughly at the same time. The gas mixtures in the polyethylene syringes were allowed to equilibrate for 15 minutes, and GC-MS-SIM was used to verify the CO2 concentrations in both syringes prior to each bioassay.
Corn Headspace Versus CO2 with Diapausing Larvae. The larvae used in our studies were from a colony of nondiapausing western corn root worm that has been maintained in our laboratory since 1986. We wished to determine if diapausing western corn root worm larvae would respond differently to corn volatiles than the colony larvae. Using the same method described above, the headspace over germinating corn seeds was tested in a choice test against a series of CO2 concentrations with western corn root worm larvae from a diapausing strain.
Corn Headspace-Coated Glass Beads versus CO2. In the previous experiments, corn volatiles were introduced into the bottom of the Y-tube and carried through the glass beads by the airstream from the syringe pump. We also tested the possibility that some volatile compounds may have been removed from the airstream by coating out on the glass beads on the bottom of the Y-tube where they would not be available for the larvae to detect at the choice point near the middle of the Y-tube. […]

Diabrotica larvae = details: Jewett and Bjostad (1996); cited from earlier work
[2] = system: neonate Western Corn root worm larvae; assay: Larval bioassay in soil tubs with granules; set-up: species or system Diabrotica species; details: in vivo
Method: The bioassay comprises a laboratory test conducted in tubs (30×15×8 cm) filled with 3000 grams of soil. A single corn seed is placed 2 cm from one end of the tub. After the corn plant is 4 days old, 30 neonate Western Corn root worm larvae are introduced into the soil in the end of the tub opposite the corn seedings. Larvae are given 24 hours to attempt to locate and attack the corn plant. Larvae are recovered from the corn plant. For granule tests, a measured amount (0.25 gram of prepared granule is mixed into 1.0 kg. of soil (20% moisture). This soil is used to fill the center ⅓ of the bioassay tub.

[3] = system: corn root worm neonate larvae; assay: Repellence test, larvae staying on paper (FIG. 78); format: in vivo; details: in the presence of a feeding stimulus

Row | SMILES | role in attraction of larvae to corn roots (conclusion) [1] | other results
1 | CCCCCCCC/C=C\CCCCCCCC(=O)O [oleic acid] | not involved in attraction of western corn root worm larvae | 
2 | CCCCCCCCCCCCCCCCCC(=O)O [stearic acid] | not involved in attraction of western corn root worm larvae | 
3 | CCCCC/C=C\C/C=C\CCCCCCCC(=O)O [linoleic acid] | not involved in attraction of western corn root worm larvae | 
4 | ClCCl [dichloromethane] |  | attractiveness to larvae (Diabrotica larvae): attractive to Diabrotica larvae
5 | COc1ccc2[nH]c(=O)oc2c1 [MBOA, 6-methoxy-2-benzoxazolinone] | not involved in attraction of western corn root worm larvae | 
6 | CN1COCN(Cc2cnc(Cl)s2)/C1=N\[N+](=O)[O-] [Thiamethoxam] |  | effect on control of larvae provided by attractant granules [2]: greatly improved; repellence to neonate larvae [3]: does not repel corn root worm neonate larvae

Reference: patent publication US20050063956A1, “Method and device for attracting insects” (Colorado State University Research Foundation, priority 1998, published 2005)
